Reference: patent US10149876B2, “Tripterygium wilfordii extracts to overcome chemotherapy resistance” (WESTERN UNIVERSITY OF HEALTH SCIENCES, priority 2012, dated 2018)
Where “and” joins values, the source holds several entries; their conditions need not be identical. Identical values can stand only once. Like-named read-outs stand apart in the source and are kept apart here.

Tests used:
DU145-TxR cells = assay: SRB cell viability assay, docetaxel-resistant DU145-TxR cells; assay type: cell-based; conditions: Homo sapiens; for IC50: docetaxel, DU-145-TxR; for viability at 1 pM / viability at 0.0001 µM / viability at 0.000333 µM / viability at 0.001 µM / viability at 0.00333 µM / viability at 0.01 µM / viability at 0.0333 µM / viability at 0.1 µM: read-out: % viable, DU145-TxR; for viability at 1 pM: docetaxel 0.001 nM 72 h; for viability at 0.0001 µM: docetaxel 0.1 nM 72 h; for viability at 0.000333 µM: docetaxel 0.333 nM 72 h; for viability at 0.001 µM: docetaxel 1 nM 72 h; for viability at 0.00333 µM: docetaxel 3.33 nM 72 h; for viability at 0.01 µM: docetaxel 10 nM 72 h; for viability at 0.0333 µM: docetaxel 33.3 nM 72 h; for viability at 0.1 µM: docetaxel 100 nM 72 h
Procedure: Using the methods described in Example 2, the chemosensitizing effect of LGT-E pretreatment on docetaxel-treated DU145-TrX cells was studied. […] The DU145-TxR cells were plated at passage 38. […] Tables 6, 8, and 10 report control data obtained from DU145-TxR cells that were not pre-treated with LGT-E. FIG. 4 summarizes the data of Tables 5-10 in a graphical format.

PC3 cells = assay: SRB cell viability assay, docetaxel-sensitive PC3 cells; assay type: cell-based; conditions: Homo sapiens, PC-3; read-out: IC50 of drug when cells treated with drug only
Procedure: The chemotherapeutic drugs that were tested for chemosensitization in combination with LTG-E were docetaxel, daunorubicin, Herceptin®, and lapatinib. […] Table 17 also contains the serially-diluted concentrations of drugs that each cell line was tested against.

K562/Dox cells = assay: SRB cell viability assay, daunorubicin-resistant K562/Dox cells; assay type: cell-based, human; conditions: 72 h, background = 0.043
K562 cells = assay: SRB cell viability assay, daunorubicin-sensitive K562 cells; assay type: cell-based, human; conditions: 72 h, background = 0.044; for mean A at 565 nm: no LGT-E pre-treatment; for mean A at 516 nm: pre-treated with 25 μg/ml LGT-E
Procedure: Cell culture of the above cell lines was performed as described in Example 2, except that 5,000, rather than 3,000 cells were plated per well for the K562, K562/Dox, BT474, SkBr3 lines.
Table 17 also contains the serially-diluted concentrations of drugs that each cell line was tested against.
Table 36 reports the cell viability data relating to pre-treatment with LTG-E prior to daunorubicin treatment. Table 37 reports control data obtained from cells that were not pre-treated with LGT-E prior to daunorubicin treatment. FIG. 15 summarizes the data of Tables 36 and 37 in a graphical format.

[1] = Docetaxel 0.001 nM (so in the source)
[2] = Docetaxel 0.1 nM (so in the source)
[3] = Docetaxel 3.33 nM (so in the source)
[4] = Docetaxel 10 nM (so in the source)
[5] = Docetaxel 33.3 nM (so in the source)
[6] = Docetaxel 100 nM (so in the source)

Structure (SMILES): CC(=O)O[C@@]12CO[C@@H]1C[C@H](O)[C@@]1(C)C(=O)[C@H](O)C3=C(C)[C@@H](OC(=O)[C@H](O)[C@@H](NC(=O)OC(C)(C)C)c4ccccc4)C[C@@](O)([C@@H](OC(=O)c4ccccc4)[C@H]21)C3(C)C [Docetaxel, docetaxel]
- IC50 (DU145-TxR cells; LGT-E 25 μg/ml pre-treatment, read-out: IC50 of drug when cells pre-treated with Chemosensitizing Agent before drug treatment): 5.76 nM and 0.00465 µg/mL
- IC50 (DU145-TxR cells; line of LGT-E 25 μg/ml, read-out: IC50 of drug when cells treated with drug only): > 100 nM and ≥ 0.0808 µg/mL
- viability at 1 pM (DU145-TxR cells; LGT-E 25 μg/ml pre-treatment): 100%
- viability at 0.0001 µM (DU145-TxR cells; LGT-E 25 μg/ml pre-treatment): 102%
- viability at 0.000333 µM (DU145-TxR cells; LGT-E 25 μg/ml pre-treatment): 102%
- viability at 0.001 µM (DU145-TxR cells; LGT-E 25 μg/ml pre-treatment): 98.6%
- viability at 0.00333 µM (DU145-TxR cells; LGT-E 25 μg/ml pre-treatment): 74.7%
- viability at 0.01 µM (DU145-TxR cells; LGT-E 25 μg/ml pre-treatment): 33.5%
- viability at 0.0333 µM (DU145-TxR cells; LGT-E 25 μg/ml pre-treatment): 13.7%
- viability at 0.1 µM (DU145-TxR cells; LGT-E 25 μg/ml pre-treatment): 6.2%
- viability at 1 pM (DU145-TxR cells; LGT-E 50 μg/ml pre-treatment): 100%
- viability at 0.000333 µM (DU145-TxR cells; LGT-E 50 μg/ml pre-treatment): 97%
- viability at 0.001 µM (DU145-TxR cells; LGT-E 50 μg/ml pre-treatment): 82.1%
- viability at 0.00333 µM (DU145-TxR cells; LGT-E 50 μg/ml pre-treatment): 34.4%
- viability at 0.01 µM (DU145-TxR cells; LGT-E 50 μg/ml pre-treatment): 11.6%
- viability at 0.0333 µM (DU145-TxR cells; LGT-E 50 μg/ml pre-treatment): 5.4%
- viability at 0.1 µM (DU145-TxR cells; LGT-E 50 μg/ml pre-treatment): 5.5%
- viability at 1 pM (DU145-TxR cells; LGT-E […] pre-treatment): 100%
- viability at 0.0001 µM (DU145-TxR cells; LGT-E […] pre-treatment): 98.1%
- viability at 0.000333 µM (DU145-TxR cells; LGT-E […] pre-treatment): 96%
- viability at 0.001 µM (DU145-TxR cells; LGT-E […] pre-treatment): 98.1%
- viability at 0.00333 µM (DU145-TxR cells; LGT-E […] pre-treatment): 91.5%
- viability at 0.01 µM (DU145-TxR cells; LGT-E […] pre-treatment): 82.9%
- viability at 0.0333 µM (DU145-TxR cells; LGT-E […] pre-treatment): 41%
- viability at 0.1 µM (DU145-TxR cells; LGT-E […] pre-treatment): 17.5%
- viability at 1 pM (DU145-TxR cells; no pre-treatment (Table 6)): 100%
- viability at 0.0001 µM (DU145-TxR cells; no pre-treatment (Table 6)): 103%
- viability at 0.000333 µM (DU145-TxR cells; no pre-treatment (Table 6)): 102%
- viability at 0.001 µM (DU145-TxR cells; no pre-treatment (Table 6)): 102%
- viability at 0.00333 µM (DU145-TxR cells; no pre-treatment (Table 6)): 102%
- viability at 0.01 µM (DU145-TxR cells; no pre-treatment (Table 6)): 102%
- viability at 0.0333 µM (DU145-TxR cells; no pre-treatment (Table 6)): 101%
- viability at 0.1 µM (DU145-TxR cells; no pre-treatment (Table 6)): 94.8%
- viability at 1 pM (DU145-TxR cells; no pre-treatment (Table 8)): 100%
- viability at 0.0001 µM (DU145-TxR cells; no pre-treatment (Table 8)): 102%
- viability at 0.000333 µM (DU145-TxR cells; no pre-treatment (Table 8)): 102%
- viability at 0.001 µM (DU145-TxR cells; no pre-treatment (Table 8)): 102%
- viability at 0.00333 µM (DU145-TxR cells; no pre-treatment (Table 8)): 102%
- viability at 0.01 µM (DU145-TxR cells; no pre-treatment (Table 8)): 100%
- viability at 0.0333 µM (DU145-TxR cells; no pre-treatment (Table 8)): 98.1%
- viability at 0.1 µM (DU145-TxR cells; no pre-treatment (Table 8)): 91%
- viability at 1 pM (DU145-TxR cells; no pre-treatment (Table 10)): 100%
- viability at 0.0001 µM (DU145-TxR cells; no pre-treatment (Table 10)): 101%
- viability at 0.000333 µM (DU145-TxR cells; no pre-treatment (Table 10)): 97.7%
- viability at 0.001 µM (DU145-TxR cells; no pre-treatment (Table 10)): 99.3%
- viability at 0.00333 µM (DU145-TxR cells; no pre-treatment (Table 10)): 98.8%
- viability at 0.01 µM (DU145-TxR cells; no pre-treatment (Table 10)): 97.2%
- viability at 0.0333 µM (DU145-TxR cells; no pre-treatment (Table 10)): 95.4%
- viability at 0.1 µM (DU145-TxR cells; no pre-treatment (Table 10)): 90.9%
- IC50 (PC3 cells): 1.8 nM and 0.00145 µg/mL
- mean A at 565 nm (K562/Dox cells; Docetaxel 0.001 nM (so in the source), no LGT-E pre-treatment): 2.771
- mean A at 565 nm (K562/Dox cells; Docetaxel 0.001 nM (so in the source), pre-treated with 25 μg/ml LGT-E): 2.747
- mean A at 565 nm (K562/Dox cells; Docetaxel 0.1 nM (so in the source), no LGT-E pre-treatment): 2.933
- mean A at 565 nm (K562/Dox cells; Docetaxel 0.1 nM (so in the source), pre-treated with 25 μg/ml LGT-E): 2.848
- mean A at 565 nm (K562/Dox cells; Docetaxel 0.333 nM (so in the source), no LGT-E pre-treatment): 2.960
- mean A at 565 nm (K562/Dox cells; Docetaxel 0.333 nM (so in the source), pre-treated with 25 μg/ml LGT-E): 2.811
- mean A at 565 nm (K562/Dox cells; Docetaxel 1 nM (so in the source), no LGT-E pre-treatment): 2.509
- mean A at 565 nm (K562/Dox cells; Docetaxel 1 nM (so in the source), pre-treated with 25 μg/ml LGT-E): 2.706
- mean A at 565 nm (K562/Dox cells; Docetaxel 3.33 nM (so in the source), no LGT-E pre-treatment): 2.848
- mean A at 565 nm (K562/Dox cells; Docetaxel 3.33 nM (so in the source), pre-treated with 25 μg/ml LGT-E): 2.300
- mean A at 565 nm (K562/Dox cells; Docetaxel 10 nM (so in the source), no LGT-E pre-treatment): 2.716
- mean A at 565 nm (K562/Dox cells; Docetaxel 10 nM (so in the source), pre-treated with 25 μg/ml LGT-E): 1.259
- mean A at 565 nm (K562/Dox cells; Docetaxel 33.3 nM (so in the source), pre-treated with 25 μg/ml LGT-E): 1.175
- mean A at 565 nm (K562/Dox cells; Docetaxel 100 nM (so in the source), no LGT-E pre-treatment): 0.723
- mean A at 565 nm (K562/Dox cells; Docetaxel 100 nM (so in the source), pre-treated with 25 μg/ml LGT-E): 0.510
- mean A at 565 nm (K562 cells; [1]): 2.844
- mean A at 516 nm (K562 cells; [1]): 2.860
- mean A at 565 nm (K562 cells; [2]): 2.874
- mean A at 516 nm (K562 cells; [2]): 2.851
- mean A at 565 nm (K562 cells; Docetaxel 0.333 nM (so in the source)): 2.274
- mean A at 565 nm (K562 cells; Docetaxel 1 nM (so in the source)): 1.414
- mean A at 565 nm (K562 cells; [3]): 1.269
- mean A at 516 nm (K562 cells; [3]): 1.331
- mean A at 565 nm (K562 cells; [4]): 0.732
- mean A at 516 nm (K562 cells; [4]): 1.148
- mean A at 565 nm (K562 cells; [5]): 0.300
- mean A at 516 nm (K562 cells; [5]): 0.723
- mean A at 565 nm (K562 cells; [6]): 0.436
- mean A at 516 nm (K562 cells; [6]): 0.553
